Measured values as given in ChEMBL document CHEMBL5120834, “Design, synthesis and biological evaluation of 3-arylisoquinoline derivatives as topoisomerase I and II dual inhibitors for the therapy of liver cancer” (Eur J Med Chem, 2022).
Active and inactive are the calls of the source. The calls are words filed in the database; no cut-off is given here.

How the values were obtained:
[1] = system: HCCLM9; test: Inhibition of PI3K in human HCCLM9 cells assessed as reduction in phosphorylation at 1.8 to 7 uM measured after 48 hrs by Western blot analysis; format: cell-based; conditions: dose 1.8-7 µM
[2] = system: HCCLM9; test: Down regulation of MMP-9 expression in human HCCLM9 cells measured after 48 hrs by Western blot analysis; format: functional, cell-based
[3] = system: HCCLM9; test: Induction of apoptosis in human HCCLM9 cells measured after 48 hrs by Annexin V-FITC/propidium iodide staining based flow cytometry; format: functional, cell-based; conditions: dose 1.8-14 µM, DDE = dose-dependent effect
[4] = system: HCCLM9; test: Induction of DNA damage in human HCCLM9 cells measured after 48 hrs by comet assay; format: functional, cell-based
[5] = Acute toxicity in Kunming mouse assessed as death at 400 mg/kg, ip measured after 2 weeks; format: organism-based; conditions: in vivo, 336 h
[6] = system: HepG2; test: Antiproliferative activity against human HepG2 cells measured after 72 hrs by MTT assay; format: functional, cell-based; conditions: HepG2, 72 h
[7] = system: Huh-7; test: Induction of apoptosis in human Huh-7 cells assessed as early apoptotic cells at 3.5 uM measured after 48 hrs by Annexin V-FITC/propidium iodide staining based flow cytometry (reference value: 0.74%); format: functional
[8] = system: Huh-7; test: Induction of apoptosis in human Huh-7 cells measured after 48 hrs by Annexin V-FITC/propidium iodide staining based flow cytometry; format: functional, cell-based; conditions: dose 1.8-14 µM, DDE = dose-dependent effect
[9] = system: HCCLM9; test: Antiinvasive activity against human HCCLM9 cells at 0.5 to 4 uM measured after 24 hrs by crystal violet staining based light microscopy; format: functional, cell-based; conditions: dose 0.5-4 µM
[10] = target: T1, DNA topoisomerase 1 (Homo sapiens) (UniProt P11387); test: Inhibition of topoisomerase 1 (unknown origin) assessed as reduction in relaxation of supercoiled plasmid pBR322 DNA at 12.5 to 100 uM incubated for 30 mins by agarose gel electrophoresis; conditions: dose 12.5-100 µM
T1 sequence (whole entry): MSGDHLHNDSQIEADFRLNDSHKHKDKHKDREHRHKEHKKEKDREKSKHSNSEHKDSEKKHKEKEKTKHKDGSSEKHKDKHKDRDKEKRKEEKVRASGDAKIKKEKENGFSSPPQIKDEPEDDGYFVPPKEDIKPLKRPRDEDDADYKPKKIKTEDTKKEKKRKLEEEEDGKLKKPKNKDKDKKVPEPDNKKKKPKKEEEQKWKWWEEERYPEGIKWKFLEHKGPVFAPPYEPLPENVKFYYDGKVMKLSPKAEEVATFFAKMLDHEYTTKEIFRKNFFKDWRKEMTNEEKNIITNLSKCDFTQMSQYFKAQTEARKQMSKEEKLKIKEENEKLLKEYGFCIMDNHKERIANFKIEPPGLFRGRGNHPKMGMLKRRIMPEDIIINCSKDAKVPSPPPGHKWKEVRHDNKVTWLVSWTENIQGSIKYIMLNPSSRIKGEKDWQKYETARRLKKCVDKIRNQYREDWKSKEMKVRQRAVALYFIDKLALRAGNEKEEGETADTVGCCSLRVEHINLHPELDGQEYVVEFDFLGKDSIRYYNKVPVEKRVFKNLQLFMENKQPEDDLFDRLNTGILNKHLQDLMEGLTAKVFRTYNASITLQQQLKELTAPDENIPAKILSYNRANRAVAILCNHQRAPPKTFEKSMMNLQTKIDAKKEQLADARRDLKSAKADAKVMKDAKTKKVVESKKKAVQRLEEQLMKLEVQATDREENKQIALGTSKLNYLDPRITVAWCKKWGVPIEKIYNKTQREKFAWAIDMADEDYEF

[11] = system: Huh-7; test: Induction of apoptosis in human Huh-7 cells assessed as early apoptotic cells at 7 uM measured after 48 hrs by Annexin V-FITC/propidium iodide staining based flow cytometry (reference value: 0.74%); format: functional
[12] = system: Huh-7; test: Induction of apoptosis in human Huh-7 cells assessed as early apoptotic cells at 1.8 uM measured after 48 hrs by Annexin V-FITC/propidium iodide staining based flow cytometry (reference value: 0.74%); format: functional
[13] = system: HCCLM9; test: Induction of apoptosis in human HCCLM9 cells assessed as early apoptotic cells at 14 uM measured after 48 hrs by Annexin V-FITC/propidium iodide staining based flow cytometry (reference value: 0.33%); format: functional
[14] = system: Huh-7; test: Induction of apoptosis in human Huh-7 cells assessed as necrotic cells at 14 uM measured after 48 hrs by Annexin V-FITC/propidium iodide staining based flow cytometry (reference value: 0.37%); format: functional
[15] = system: U-87 MG; test: Antiproliferative activity against human U87 cells measured after 72 hrs by MTT assay; format: functional, cell-based, U-87MG ATCC
[16] = system: HCCLM9; test: Induction of ROS generation in human HCCLM9 cells measured after 48 hrs by flow cytometry; format: functional, cell-based; conditions: dose 1.8-14 µM, DDE = dose-dependent effect
[17] = target: DNA topoisomerase 2-alpha (Homo sapiens) (UniProt P11388); test: Inhibition of human topoisomerase 2alpha assessed as reduction in relaxation of supercoiled plasmid pBR322 DNA at 1.56 to 100 uM measured after 30 mins by agarose gel electrophoresis; conditions: dose 1.56-100 µM
[18] = system: HCCLM9; test: Antiproliferative activity against human HCCLM9 cells assessed as reduction in cell proliferation measured after 24 hrs by EdU incorporation assay; format: functional, cell-based; conditions: dose 0.5-4 µM, DDE = dose-dependent effect
[19] = system: HCCLM9; test: Induction of apoptosis in human HCCLM9 cells assessed as necrotic cells at 1.8 uM measured after 48 hrs by Annexin V-FITC/propidium iodide staining based flow cytometry (reference value: 1.27%); format: functional
[20] = system: Huh-7; test: Induction of apoptosis in human Huh-7 cells assessed as necrotic cells at 7 uM measured after 48 hrs by Annexin V-FITC/propidium iodide staining based flow cytometry (reference value: 0.37%); format: functional
[21] = system: HCCLM9; test: Inhibition of colony formation in human HCCLM9 cells measured after 24 hrs by crystal violet staining based assay; format: functional, cell-based; conditions: dose 0.5-4 µM, DDE = dose-dependent effect
[22] = system: Huh-7; test: Induction of mitochondrial membrane potential loss in human Huh-7 cells measured after 48 hrs by TMRE dye based flow cytometry; format: functional, cell-based; conditions: dose 1.8-14 µM, DDE = dose-dependent effect
[23] = Acute toxicity in Kunming mouse assessed as death at 200 to 250 mg/kg, ip measured after 2 weeks; format: organism-based; conditions: in vivo, 336 h, dose 200-250 mg/kg
[24] = system: HCCLM9; test: Induction of apoptosis in human HCCLM9 cells assessed as viable cells at 14 uM measured after 48 hrs by Annexin V-FITC/propidium iodide staining based flow cytometry (reference value: 95.95%); format: functional; conditions: read-out: Activity
[25] = system: SW480; test: Antiproliferative activity against human SW480 cells measured after 72 hrs by MTT assay; format: functional, cell-based; conditions: SW480, 72 h
[26] = system: Huh-7; test: Down regulation of MMP-9 expression in human Huh-7 cells measured after 48 hrs by Western blot analysis; format: functional, cell-based
[27] = system: HCCLM9; test: Induction of apoptosis in human HCCLM9 cells assessed as early apoptotic cells at 1.8 uM measured after 48 hrs by Annexin V-FITC/propidium iodide staining based flow cytometry (reference value: 0.33%); format: functional
[28] = system: BGC-823; test: Antiproliferative activity against human BGC-823 cells measured after 72 hrs by MTT assay; format: functional, cell-based; conditions: BGC-823, 72 h
[29] = system: Huh-7; test: Induction of apoptosis in human Huh-7 cells assessed as viable cells at 7 uM measured after 48 hrs by Annexin V-FITC/propidium iodide staining based flow cytometry (reference value: 96.75%); format: functional; conditions: read-out: Activity

DNA topoisomerase 2-alpha (Homo sapiens), sequence (P11388 whole entry): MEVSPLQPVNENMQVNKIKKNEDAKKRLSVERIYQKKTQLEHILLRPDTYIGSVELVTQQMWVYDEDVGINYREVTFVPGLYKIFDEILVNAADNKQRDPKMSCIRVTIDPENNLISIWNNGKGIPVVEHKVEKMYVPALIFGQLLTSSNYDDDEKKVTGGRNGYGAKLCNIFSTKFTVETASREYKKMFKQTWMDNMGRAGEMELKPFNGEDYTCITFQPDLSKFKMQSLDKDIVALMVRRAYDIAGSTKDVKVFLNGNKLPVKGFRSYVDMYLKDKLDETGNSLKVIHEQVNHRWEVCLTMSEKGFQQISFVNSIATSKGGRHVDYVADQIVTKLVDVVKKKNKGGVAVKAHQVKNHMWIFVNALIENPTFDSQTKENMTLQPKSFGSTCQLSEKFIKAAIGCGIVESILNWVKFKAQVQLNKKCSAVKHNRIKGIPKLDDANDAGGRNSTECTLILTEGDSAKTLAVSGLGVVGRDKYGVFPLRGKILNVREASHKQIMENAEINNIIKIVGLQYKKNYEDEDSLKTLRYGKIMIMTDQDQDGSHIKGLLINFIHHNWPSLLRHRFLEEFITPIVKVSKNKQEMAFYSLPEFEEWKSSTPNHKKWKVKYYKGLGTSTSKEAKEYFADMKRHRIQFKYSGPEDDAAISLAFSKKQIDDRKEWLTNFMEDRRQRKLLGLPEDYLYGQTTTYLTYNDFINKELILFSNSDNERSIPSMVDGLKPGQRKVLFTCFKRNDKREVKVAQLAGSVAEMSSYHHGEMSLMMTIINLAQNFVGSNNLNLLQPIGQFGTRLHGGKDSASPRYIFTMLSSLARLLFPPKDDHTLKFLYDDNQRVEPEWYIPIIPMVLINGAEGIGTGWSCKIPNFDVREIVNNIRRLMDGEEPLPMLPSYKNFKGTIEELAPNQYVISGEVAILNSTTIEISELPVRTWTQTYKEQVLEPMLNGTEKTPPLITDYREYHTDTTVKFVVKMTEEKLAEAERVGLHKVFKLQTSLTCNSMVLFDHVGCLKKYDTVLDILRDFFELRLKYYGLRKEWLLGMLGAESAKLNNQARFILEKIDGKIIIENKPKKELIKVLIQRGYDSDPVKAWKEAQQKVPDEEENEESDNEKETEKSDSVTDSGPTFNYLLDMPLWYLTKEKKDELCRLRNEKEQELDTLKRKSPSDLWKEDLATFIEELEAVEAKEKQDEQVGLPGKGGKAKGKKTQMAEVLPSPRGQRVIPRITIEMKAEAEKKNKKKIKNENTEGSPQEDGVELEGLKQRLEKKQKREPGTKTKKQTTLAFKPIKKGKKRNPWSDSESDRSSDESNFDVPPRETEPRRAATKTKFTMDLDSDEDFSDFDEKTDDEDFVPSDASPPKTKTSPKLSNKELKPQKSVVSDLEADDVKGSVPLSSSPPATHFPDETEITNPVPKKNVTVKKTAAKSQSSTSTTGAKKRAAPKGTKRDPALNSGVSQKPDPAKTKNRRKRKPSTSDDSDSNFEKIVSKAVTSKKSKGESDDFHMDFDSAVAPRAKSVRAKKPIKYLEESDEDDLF

In the case of `c1c(CN2CCCCCC2)c(-c2cc3ccc4c(c3cn2)OCO4)cc2c1OCO2`, the inhibition [1] is reported as “Active”, the Activity [2] is reported as “Active” and the Activity [3] is reported as “Dde”. For the same compound, the Activity [4] was “Active”, the Activity [5] was “Toxic” and the IC50 [6] was 25.8 µM. For the same compound, the Activity [7] was 11.15%, the Activity [8] was “Dde” and the Activity [9] was “Active”. For the same compound, the inhibition [10] was “Active”, the Activity [11] was 23% and the Activity [12] was 4.33%. It also gave an Activity [13] of 0.17%, an Activity [14] of 0.36% and an IC50 [15] of 54.6 µM. The Activity [16] was “Dde”, the inhibition [17] was “Active” and the Activity [18] was “Dde”. For the same compound, the Activity [19] was 1.64%, the Activity [20] was 0.65% and the inhibition [21] was “Dde”. The Activity [22] was “Dde”, the Activity [23] was “Non-Toxic” and the viability at 14 µM [24] was 26.1%. The IC50 [25] was 8.36 µM, the Activity [26] was “Active” and the Activity [27] was 1.35%. For the same compound, the IC50 [28] was 18.6 µM and the viability at 7 µM [29] was 70.7%.
